In PubChem BioAssay (NCI):
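Interpolation was linear, between the two tested concentrations surrounding the appropriate level; five concentrations were tested over 48 hours in 96-well plates. TGI denotes the concentration required for complete inhibition of growth.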

Assays:
Test in all cases: inhibition of tumour cell growth, NCI panel, 48 h
786-0 renal = system: 786-0 renal
A498 renal = system: A498 renal
CAKI-1 renal = system: CAKI-1 renal
HCC-2998 colon = system: HCC-2998 colon
HL-60(TB) leukemia = system: HL-60(TB) leukemia
HOP-92 NSCLC = system: HOP-92 NSCLC
HT29 colon = system: HT29 colon
K-562 leukemia = system: K-562 leukemia
M14 melanoma = system: M14 melanoma
MALME-3M melanoma = system: MALME-3M melanoma
MCF7 breast = system: MCF7 breast
MDA-MB-231 breast = system: MDA-MB-231 breast
MOLT-4 leukemia = system: MOLT-4 leukemia
NCI-H460 lung = system: NCI-H460 lung
OVCAR-8 ovarian = system: OVCAR-8 ovarian
SF-295 CNS = system: SF-295 CNS
SNB-19 CNS = system: SNB-19 CNS
SR leukemia = system: SR leukemia
U251 CNS = system: U251 CNS

| SMILES | TGI (786-0 renal) | TGI (A498 renal) | TGI (CAKI-1 renal) | TGI (HCC-2998 colon) | TGI (HL-60(TB) leukemia) | TGI (HOP-92 NSCLC) | TGI (HT29 colon) | TGI (K-562 leukemia) | TGI (M14 melanoma) | TGI (MALME-3M melanoma) | TGI (MCF7 breast) | TGI (MDA-MB-231 breast) | TGI (MOLT-4 leukemia) | TGI (NCI-H460 lung) | TGI (OVCAR-8 ovarian) | TGI (SF-295 CNS) | TGI (SNB-19 CNS) | TGI (SR leukemia) | TGI (U251 CNS) |
| --- | --- | --- | --- | --- | --- | --- | --- | --- | --- | --- | --- | --- | --- | --- | --- | --- | --- | --- | --- |
| CCOC(=O)c1csc(C(CSCc2ccc(OC)cc2)N2C(=O)c3ccccc3C2=O)n1 (stereo unspecified) | > 100 µM | > 100 µM | > 100 µM | > 100 µM | > 100 µM | > 100 µM | > 100 µM | > 100 µM | > 100 µM | > 100 µM | > 100 µM | > 100 µM | > 100 µM | > 100 µM | > 100 µM | > 100 µM | > 100 µM | > 100 µM | > 100 µM |
| CCO[C@@]12CCC3CC4CC[C@@](OCC)(O1)C4C32 (stereo partly specified) | > 100 µM | > 100 µM | > 100 µM | > 100 µM | > 100 µM | > 100 µM | > 100 µM | > 100 µM | > 100 µM | > 100 µM | > 100 µM | > 100 µM | > 100 µM | > 100 µM | > 100 µM | > 100 µM | > 100 µM | > 100 µM | > 100 µM |
| C[C@H](c1ccccc1)n1c(N)c(-c2nc3ccccc3s2)c2ccc([N+](=O)[O-])cc2c1=O | > 100 µM | 75.2 µM | > 85.1 µM | > 85.1 µM | 36.6 µM | 5.81 µM | > 52.7 µM | 4.25 µM | > 100 µM | 56.8 µM | 52.2 µM | 27.7 µM | 19.9 µM | > 61.5 µM | > 100 µM | 50.8 µM | > 52.1 µM | 13 µM | 53.3 µM |
| COC(=O)[C@@H](NC(=O)[C@H](N)Cc1ccc(N(CCCl)CCCl)cc1)C(C)C | 49.7 µM | 48.5 µM | 7.53 µM | 26.5 µM | > 51.8 µM | 5.72 µM | > 100 µM | 40.3 µM | 49.5 µM | 6.19 µM | > 100 µM | 57.7 µM | 0.234 µM | 26.3 µM | 27.8 µM | > 100 µM | > 100 µM | > 38.6 µM | > 100 µM |
| O=[N+]([O-])C(C(Cl)=C(Cl)Cl)=C(n1nnc2ccccc21)n1nnc2ccccc21 | 20.4 µM | > 90 µM | > 54.1 µM | > 67.1 µM | 13.5 µM | > 81.6 µM | 59.6 µM | 30.6 µM | 50.8 µM | 49 µM | > 55.4 µM | 38.5 µM | 26.2 µM | > 68.8 µM | 48.8 µM | > 67.9 µM | > 100 µM | 17.4 µM | 62.8 µM |
| CCN(CC)/[N+]([O-])=N/OCOC | > 100 µM | > 100 µM | > 100 µM | > 100 µM | > 100 µM | > 100 µM | > 100 µM | > 100 µM | > 100 µM | > 100 µM | > 100 µM | > 100 µM | > 100 µM | > 100 µM | > 100 µM | > 100 µM | > 100 µM | > 100 µM | > 100 µM |
| O=CC(O)C(O)C1OC(=O)c2cc(O)c(O)c(O)c2C2=C(O)C(O)=C3OC(=O)c4c(c(O)c(O)c5c4C3C2C(=O)O5)-c2c(cc(O)c(O)c2O)C(=O)OCC1O (stereo unspecified) | 32.2 µM | > 100 µM | 37.7 µM | > 100 µM | 67.7 µM | 98.2 µM | 42.9 µM | 56.7 µM | > 100 µM | > 100 µM | 39.7 µM | 58.1 µM | 63.3 µM | > 100 µM | 45.9 µM | > 100 µM | > 100 µM | 63 µM | 70.2 µM |
| O=C1N/C(=N\N=C\c2ccccc2)C2(CCCCC2)O1 | > 100 µM | > 100 µM | > 100 µM | > 100 µM | > 100 µM | > 100 µM | > 100 µM | > 100 µM | > 100 µM | > 100 µM | > 100 µM | > 100 µM | > 100 µM | > 100 µM | > 100 µM | > 100 µM | > 100 µM | 76.4 µM | > 100 µM |
| CC(C)(C)n1c(=O)n(-c2ccccc2)n(C(C)(C)C)c1=O | > 100 µM | > 100 µM | > 100 µM | > 100 µM | > 100 µM | > 100 µM | > 100 µM | > 100 µM | > 100 µM | > 100 µM | > 100 µM | > 100 µM | > 100 µM | > 100 µM | > 100 µM | > 100 µM | > 100 µM | > 100 µM | > 100 µM |
| COC(=O)c1sc2c(c1C(=O)OC)C(=NC(C)(C)C)SC2=NC(C)(C)C | 30.4 µM | 32.5 µM | 32.6 µM | 28.3 µM | 28.6 µM | 35.4 µM | 37.6 µM | 43.3 µM | 32.2 µM | 37.8 µM | 33.1 µM | 37.3 µM | 31.8 µM | 34.9 µM | 42.3 µM | 36.6 µM | 35.8 µM | 33.8 µM | 32.3 µM |
| CO[C@@H]1C[C@H]2[C@@H]3CC[C@H]([C@H](C)COC(C)=O)[C@@]3(C)CC[C@@H]2[C@@]2(C)CC[C@H]3C[C@]312 | > 100 µM | > 100 µM | > 100 µM | > 100 µM | > 100 µM | > 100 µM | > 100 µM | > 100 µM | > 100 µM | > 100 µM | > 100 µM | > 100 µM | > 100 µM | > 100 µM | > 100 µM | > 100 µM | > 100 µM | > 100 µM | > 100 µM |
| Clc1cc(OCc2nn3c(Cc4ccccc4)nnc3s2)c(Cl)cc1OCc1nn2c(Cc3ccccc3)nnc2s1 | > 100 µM | 88.5 µM | > 100 µM | > 100 µM | > 100 µM | 61.2 µM | > 100 µM | 24.2 µM | > 100 µM | > 100 µM | > 100 µM | > 100 µM | 19.8 µM | > 100 µM | > 100 µM | > 100 µM | 95.8 µM | 10.4 µM | > 100 µM |
| CC(NP(=O)(c1ccccc1)c1ccccc1)c1ccccc1 (stereo unspecified) | > 100 µM | > 100 µM | > 100 µM | > 100 µM | > 100 µM | > 100 µM | > 100 µM | > 100 µM | > 100 µM | > 100 µM | > 100 µM | > 100 µM | > 100 µM | > 100 µM | > 100 µM | > 100 µM | > 100 µM | > 100 µM | > 100 µM |
| CC(C)[C@@H]1CC[C@@H](C)C[C@H]1OC(=O)/C=C1\C(C(=O)O[C@@H]2C[C@H](C)CC[C@H]2C(C)C)[C@H]2C=C[C@@H]1O2 (stereo partly specified) | > 100 µM | > 100 µM | > 100 µM | > 100 µM | 76.1 µM | > 100 µM | > 100 µM | > 100 µM | > 100 µM | > 100 µM | 71.6 µM | > 100 µM | > 100 µM | > 100 µM | > 100 µM | > 100 µM | > 100 µM | > 100 µM | > 100 µM |
| CC(=O)N1C(CCc2ccccc2)CC(C)(C=O)C1Cc1ccc(O[Si](C(C)C)(C(C)C)C(C)C)cc1 (stereo unspecified) | 6.43 µM | 14.3 µM | 11.2 µM | 4.62 µM | 4.42 µM | 23.7 µM | 9.99 µM | > 26.1 µM | 4.49 µM | 27.3 µM | 5.26 µM | 11.1 µM | > 21.5 µM | 9.05 µM | 18.6 µM | 19.6 µM | 18.1 µM | > 21.7 µM | 13.3 µM |
| C=CCSC1=N/C(=C\c2ccc(OC)cc2)C(=O)N1CC=C | > 100 µM | 66.6 µM | > 100 µM | 79.7 µM | 34.8 µM | > 100 µM | > 100 µM | > 100 µM | > 100 µM | 87.7 µM | > 100 µM | > 100 µM | 37.1 µM | > 100 µM | > 100 µM | > 100 µM | > 100 µM | 43.7 µM | > 100 µM |
| N#Cc1c(N)nc(SCc2ccccc2)c(C#N)c1-c1ccc(O)cc1 | 30.6 µM | 30.6 µM | 28.5 µM | > 55.6 µM | 32.8 µM | 22 µM | 23.1 µM | 37.8 µM | 29.2 µM | 30 µM | 30.6 µM | 28.5 µM | 23.1 µM | > 65.8 µM | 30.7 µM | 32.3 µM | 41.6 µM | 34.7 µM | 30.5 µM |
| C[C@@H](NC(=O)Cn1c(Cl)nc2ccccc21)c1ccccc1 | > 100 µM | > 100 µM | > 100 µM | > 100 µM | > 100 µM | > 100 µM | > 100 µM | > 100 µM | > 100 µM | > 100 µM | > 100 µM | > 100 µM | > 100 µM | > 100 µM | > 100 µM | > 100 µM | > 100 µM | > 100 µM | > 100 µM |
| Cc1nc2c(O)c3c(c(O)c2nc1C)C1C=CC3CC1 | 27.6 µM | 81.5 µM | 14.9 µM | > 59.2 µM | 2.66 µM | 7.75 µM | 55.9 µM | 4.31 µM | 29.4 µM | 26.1 µM | 25.4 µM | 10.1 µM | 2.9 µM | > 72.6 µM | 20.9 µM | 47.2 µM | > 100 µM | > 90.8 µM | 21.6 µM |
